Values joined by “and” are separate entries in the source; they are usually repeats but may differ in a detail not shown here. Identical values can stand only once. Like-named read-outs stand apart in the source and are kept apart here. Bridge positions count the residues as written; N and C are the ends. Peptide text beside a SMILES is read from it.
Experiments:
MUC2 = MUC2 (Homo sapiens, UniProt Q02817); test: Biolayer interferometry binding kinetics, MUC2; conditions: Octet RED96, biotinylated MUC2 on streptavidin sensor; for Kd: PBS pH 7.2, koff/kon, read-out: dissociation constant kd; for kon: PBS pH 7.2, association 300 s, dissociation 300 s
Description: (§1) Binding kinetics for the successful mucin-binding hits were measured using biolayer interferometry (BLI).[73] In BLI, a protein target is immobilized on the surface of a biosensor, creating a thin optical layer. These coated sensors are then exposed to a solution of the ligand (in this case, the small molecule and peptide hits), allowing the ligand to associate and dissociate with the protein target. This association/dissociation behavior changes the thickness of the optical layer, and the instrument correlates this change in thickness with binding and desorption. By testing different concentrations of the ligand, the kinetic rate constants and dissociation constant (kd) can be measured by fitting the resulting binding curves according to a binding model.[73]
(§2) For the analysis of mucin-binding kinetics, mucins MUC2 and MUC5AC were used as the protein targets, and the “hits” were used as the ligands of interest. Mucins were biotinylated and suspended in buffers with different pH levels (MUC2 in PBS with pH 7.2 and PBS-HCl with pH 3.35, MUC5AC in PBS-HCl with pH 1.82) that mimic the pH of the normal small intestine,[74] the small intestine during inflammatory bowel disease,[75] and the normal stomach,[76] respectively. Hits were dissolved in the same buffer to minimize the optical differences among the buffer, mucin solution, and analyte solution. BLI was carried out on an Octet RED96 platform in five steps. First, a baseline step of 60 s was carried out. Then, biotinylated mucins were immobilized onto the surface of a streptavidin sensor during a loading step of 300 s. Next, the loaded tips were allowed to re-equilibrate in another baseline step for 60 s. Following that, the loaded tips were allowed to incubate in a solution of analyte (an association step) for 300 s; this allowed the hits to interact with the mucin, changing the thickness of the optical layer and generating a response from the optical measurement. Finally, the tips were moved to buffer wells, and the hits were allowed to dissociate from the mucin for 300 s. Data were analyzed, and ligand-only and hit-only controls were used as references to properly characterize the binding performance of the hits.
(§3) Binding of the hits to the mucins generally follows one of two different mechanisms. The first is a 1:1 bimolecular model in which the molecule binds to a specific spot on the mucin. The reaction can, therefore, be described using the following model:[77] [drawing 3]
(§4) In this model, kon represents the rate of association of the hit to the mucin, while koff represents the rate of dissociation of the molecule from the molecule-mucin complex. The dissociation constant is calculated as the ratio of these two rate constants.
(§5) The second model is a 2:1 heterogeneous model, in which the molecule binds at two locations on the mucin (each with its own kinetic rate constants and dissociation constant).[78] These reactions are described using the following model: [drawing 4]
(§6) The rate constants for each interaction are equivalent to those of the single interaction present in the 1:1 model, while each interaction has its own dissociation constant. This was calculated similarly to the 1:1 model.

MUC5AC = MUC5AC (Homo sapiens, UniProt P98088); test: Biolayer interferometry binding kinetics, MUC5AC; conditions: for Kd: PBS-HCl pH 1.82, koff/kon, read-out: dissociation constant kd
Description: as §1, §2, §3, §4, §5, §6

[1] = test system: MUC5AC-containing stomach tissue; test: Ex vivo fluorescent binding to stomach tissue; set-up: species or system porcine; conditions: MUC5AC-selective peptides to stomach, scaled between free AF647 (0) and WGA-AF647 (1), mean across trials n = 3
Description: (§7) After identifying the peptide hits for each mucin, we tested their binding in an ex vivo setting (Figure S1), evaluating their interaction with mucin-containing porcine tissue and semiquantitatively representing it through fluorescent imaging (Figure 3a). The cyclic peptides were synthesized and conjugated to a fluorophore, Alexa Fluor 647 (AF647), at the N-terminus to allow fluorescent imaging to be used to semiquantitatively measure the peptides’ ex vivo tissue binding, compared to free AF647 and AF647 conjugated to wheat germ agglutinin (WGA), a known lectin for glycoproteins.[40] […] Porcine GI tissue was used due to its similarity in mucin expression compared to human GI tissue and its capacity to source large surface areas of tissue for experiments.[41],[42] Representative IVIS images are shown in Figure 3b-e, where the first four columns represent the four identified peptides (M2.1–M2.4 in Figure 3b,c, M5.1–M5.4 in Figure 3d,e), the fifth column represents WGA-AF647, and the sixth column represents AF647. The “score” results for the peptide ligands are presented in Figure 3f,g for the mucins of interest, with Tables S2–S5 and Figure S3 detailing results for the other tissues (the equation for calculating the “score” is found in the Materials and Methodssection). […] We also examined selectivity by incubating peptides on nontarget tissues. Figure 3h,i depicts the “selectivity” results for the MUC2-selective and MUC5AC-selective peptides, respectively. Selectivity was calculated by determining the ratio of the “score” for a particular mucin to the sum of the “scores” for all mucins (see the Materials and Methods section for the equation used).
The top-performing hits from phage display were tested on ex vivo segments of porcine mucin-containing tissues (jejunal, stomach, and esophageal tissues) obtained from local abattoirs or laboratory-maintained pigs. Tissue was used either immediately after acquisition or after storage at −80 °C; tissue was used at most 1 week after acquisition and storage at −80 °C. After acquisition and equilibration to room temperature, the tissue was washed twice with 25 mL (each) of cold 1× PBS to remove undigested food and other debris. After washing and cleaning, the tissue was mounted between two magnetic plates with holes corresponding to a 48-well plate, as previously described,[72] such that the luminal side of the tissue was facing up (Figure S1). After the tissue was mounted, the amount of peptide/protein corresponding to 40 μg of AF647 was suspended in 200 μL of 1× PBS and added to the wells created by the magnetic plates. This was done 3× for each formulation to perform the experiment in triplicate. In addition, plain 1× PBS was added to one well to serve as the background measurement. […] After washing was complete, fluorescence imaging was performed using an IVIS Spectrum fluorescent imaging system (PerkinElmer), with an automatically calculated exposure time (usually ∼1 s), a 20 cm × 20 cm field of view, and an excitation/emission of 640/680 nm, respectively. The imaging results were analyzed using Living Image software to calculate the total fluorescence intensity for each well, and the results for each hit or control were averaged across different wells. […]
(§8) To better account for tissue-to-tissue variability, the results for each trial were reported as scores rather than using the raw fluorescence intensity. […]

[2] = test system: MUC2-containing intestinal tissue (jejunal); test: Ex vivo fluorescent binding to small intestine tissue; set-up: species or system porcine; conditions: MUC2-selective peptides to small intestine, scaled between free AF647 (0) and WGA-AF647 (1), mean across trials n = 3
Description: as §7
The top-performing hits from phage display were tested on ex vivo segments of porcine mucin-containing tissues (jejunal, stomach, and esophageal tissues) obtained from local abattoirs or laboratory-maintained pigs. Tissue was used either immediately after acquisition or after storage at −80 °C; tissue was used at most 1 week after acquisition and storage at −80 °C. After acquisition and equilibration to room temperature, the tissue was washed twice with 25 mL (each) of cold 1× PBS to remove undigested food and other debris. After washing and cleaning, the tissue was mounted between two magnetic plates with holes corresponding to a 48-well plate, as previously described,[72] such that the luminal side of the tissue was facing up (Figure S1). After the tissue was mounted, the amount of peptide/protein corresponding to 40 μg of AF647 was suspended in 200 μL of 1× PBS and added to the wells created by the magnetic plates. This was done 3× for each formulation to perform the experiment in triplicate. In addition, plain 1× PBS was added to one well to serve as the background measurement. After the peptides were added, the plate setup was covered with aluminum foil and allowed to incubate for 1 h at room temperature with gentle agitation (50 rpm). After incubation, the nonbinding peptides were removed by pouring out the solutions onto a clean paper towel, and the setup was washed three times by adding 200 μL of 1× PBS to each well and gently agitating the setup for 30 s before removing the washing solution. After washing was complete, fluorescence imaging was performed using an IVIS Spectrum fluorescent imaging system (PerkinElmer), with an automatically calculated exposure time (usually ∼1 s), a 20 cm × 20 cm field of view, and an excitation/emission of 640/680 nm, respectively. The imaging results were analyzed using Living Image software to calculate the total fluorescence intensity for each well, and the results for each hit or control were averaged across different wells. The negative control used was unconjugated AF647, while the positive control was WGA-AF647, since WGA is a known lectin that binds glycoproteins.
as §8

[3] = BLI, Octet RED96, biotinylated MUC5AC on streptavidin sensor

| Molecule | Kd (MUC2; BLI) | Kd (MUC5AC; [3]) | further results |
| --- | --- | --- | --- |
| CC[C@H](C)[C@@H]1NC(=O)[C@@H]2CCCN2C(=O)CNC(=O)[C@@H](N)CSSC[C@@H](C(=O)O)NC(=O)[C@H](CC(C)C)NC(=O)[C@H](C)NC(=O)[C@H]([C@@H](C)O)NC(=O)[C@H](Cc2ccc(O)cc2)NC1=O [Peptide M5.2] (H-CGPIYTALC-OH; disulfide 1-9) | 112 nM | 7.88 nM | kd for MUC5AC binding compared with MUC2 binding (stronger) (MUC5AC; BLI, MUC5AC pH 1.82 vs MUC2): 2 orders of magnitude |
| CSCC[C@@H]1NC(=O)CNC(=O)[C@H](CCSC)NC(=O)[C@H]([C@@H](C)O)NC(=O)[C@H](CC(C)C)NC(=O)[C@H](C)NC(=O)[C@H]([C@@H](C)O)NC(=O)[C@@H](N)CSSC[C@@H](C(=O)O)NC1=O [Peptide M5.3] (H-CTALTMGMC-OH; disulfide 1-9) | – | 1.54 nM | kon (MUC2; BLI): 6.33 × 10^4 M^–1s^–1 and ~10^4 M^–1s^–1 |
| CC(C)C[C@@H]1NC(=O)[C@H](CO)NC(=O)[C@H](CO)NC(=O)[C@H](C)NC(=O)[C@@H](N)CSSC[C@@H](C(=O)O)NC(=O)[C@H](CCCNC(=N)N)NC(=O)[C@H](C(C)C)NC(=O)[C@H](CO)NC1=O [Peptide M2.4] (H-CASSLSVRC-OH; disulfide 1-9) | 112 nM | – | kon (MUC2; pH 7.2, BLI, read-out: kon): 57700 M⁻¹ s⁻¹; kon (MUC5AC; pH 1.82, BLI, Octet RED96, biotinylated MUC5AC on streptavidin sensor, PBS-HCl pH 1.82, association 300 s, dissociation 300 s): 29500 M⁻¹ s⁻¹ |
| Alexa Fluor 647 [Free dye, reference compound] | – | – | Overall nanoparticle “score” [1]: 0; Overall nanoparticle “score” [2]: 0 |
| C[C@@H]1NC(=O)[C@H](CCCNC(=N)N)NC(=O)[C@H](CC(=O)O)NC(=O)[C@@H]2CCCN2C(=O)[C@H](CCCNC(=N)N)NC(=O)CNC(=O)[C@H](CC(=O)O)NC(=O)[C@@H](N)CSSC[C@@H](C(=O)O)NC1=O [Peptide M2.3] (H-CDGRPDRAC-OH; disulfide 1-9) | 7.11 nM | 65.4 nM | – |

Reference: publication PMC12020424, “Identification and Validation of Cyclic Peptides with Mucin-Selective, Location-Specific Binding in the Gastrointestinal Tract” (ACS Nano, 2025)
